From patent US8278345B2, “Inhibitors of glutaminyl cyclase” (Probiodrug AG, priority 2006, dated 2012)
Where two headings read alike, the source gives them in different places.

Molecular target: hQC (Homo sapiens, UniProt Q16769)
Experiment: Inhibitor assay for glutaminyl cyclase activity (fluorometric, H-Gln-βNA / H-Gln-AMC)
Format: biochemical
Procedure, shortened: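 Coupled fluorometric assay at 30 °C with pyroglutamyl aminopeptidase, in Tris/HCl pH 8.0 with EDTA, substrate H-Gln-βNA (0.2 mM; ex/em 320/410 nm) or H-Gln-AMC (ex/em 380/460 nm), initiated by QC. Screening: 4 mM inhibitor, substrate at 1 KM; Ki from progress curves fitted to competitive inhibition.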

[1] = compound from preparative synthesis, purified, read-out: IC50 hQC

hQC, sequence (Q16769 29-361): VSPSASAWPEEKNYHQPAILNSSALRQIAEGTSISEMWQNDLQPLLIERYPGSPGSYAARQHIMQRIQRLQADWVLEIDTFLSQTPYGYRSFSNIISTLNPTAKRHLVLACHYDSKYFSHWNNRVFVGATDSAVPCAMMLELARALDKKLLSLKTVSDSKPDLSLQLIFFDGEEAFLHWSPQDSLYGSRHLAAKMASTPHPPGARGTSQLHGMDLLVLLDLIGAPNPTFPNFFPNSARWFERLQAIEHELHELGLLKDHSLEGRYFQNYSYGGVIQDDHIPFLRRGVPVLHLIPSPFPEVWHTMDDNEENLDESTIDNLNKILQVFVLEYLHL

CC1C(c2ccc(O)cc2)=C(O)C(=O)N1CCCn1ccnc1 (centres unmarked) [Compound 160, 3-Hydroxy-4-(4-hydroxy-phenyl)-1-(3-imidazol-1-yl-propyl)-5-methyl-1,5-dihydro-pyrrol-2-one]
IC50 (read-out: IC50): 0.4 µM

CCCCCC1=C(O)C(=O)N(CCCn2ccnc2)C1c1ccccc1F (centres unmarked) [Compound 217, 5-(2-Fluoro-phenyl)-3-hydroxy-1-(3-imidazol-1-yl-propyl)-4-pentyl-1,5-dihydro-pyrrol-2-one]
IC50 [1]: 1.54 µM
IC50 (read-out: IC50): 0.04 µM

COc1ccc(C2C(C(C)C)=C(O)C(=O)N2CCCn2ccnc2)cc1 (centres unmarked) [Compound 59, 3-Hydroxy-1-(3-imidazol-1-yl-propyl)-4-isopropyl-5-(4-methoxy-phenyl)-1,5-dihydro-pyrrol-2-one]
IC50 (read-out: IC50): 0.4 µM

CC(C)C1=C(O)C(=O)N(CCCn2ccnc2)C1c1ccccc1F (centres unmarked) [Compound 74, 5-(2-Fluoro-phenyl)-3-hydroxy-1-(3-imidazol-1-yl-propyl)-4-isopropyl-1,5-dihydro-pyrrol-2-one]
IC50 (read-out: IC50): 2.2 µM

O=C1C(O)=C(c2c[nH]c3ccccc23)C(c2ccccc2F)N1CCCn1ccnc1 (centres unmarked) [Compound 144, 5-(2-Fluoro-phenyl)-3-hydroxy-1-(3-imidazol-1-yl-propyl)-4-(1H-indol-3-yl)-1,5-dihydro-pyrrol-2-one]
IC50 [1]: 1.04 µM
IC50 (read-out: IC50): 0.04 µM

CCCCCC1=C(O)C(=O)N(CCCn2ccnc2)C1c1c[nH]c2cc(C)ccc12 (centres unmarked) [Compound 202, 3-Hydroxy-1-(3-imidazol-1-yl-propyl)-5-(6-methyl-1H-indol-3-yl)-4-pentyl-1,5-dihydro-pyrrol-2-one]
IC50 (read-out: IC50): 0.04 µM

O=C(C1=C(O)C(=O)N(c2ccc3[nH]cnc3c2)C1c1ccc(CO)o1)c1ccncc1 (centres unmarked) [Compound 272, 1-(1H-Benzoimidazol-5-yl)-3-hydroxy-5-(5-hydroxymethyl-furan-2-yl)-4-(pyridine-4-carbonyl)-1,5-dihydro-pyrrol-2-one]
IC50 (read-out: IC50): 3.73 µM

CC1=C(O)C(=O)N(CCCn2ccnc2)C1c1cc[nH]n1 (centres unmarked) [Compound 23, 3-Hydroxy-1-(3-imidazol-1-yl-propyl)-4-methyl-5-(1H-pyrazol-3-yl)-1,5-dihydro-pyrrol-2-one]
IC50 (read-out: IC50): 7.6 µM

CC1=C(O)C(=O)N(c2ccc3[nH]cnc3c2)C1c1ccco1 (centres unmarked) [Compound 426, 1-(1H-Benzoimidazol-5-yl)-5-furan-2-yl-3-hydroxy-4-methyl-1,5-dihydro-pyrrol-2-one]
IC50 (read-out: IC50): 0.004 µM

CCCCCC1=C(O)C(=O)N(CCCn2ccnc2)C1/C=C/C(C)C (centres unmarked) [Compound 190, 3-Hydroxy-1-(3-imidazol-1-yl-propyl)-5-(3-methyl-but-1-enyl)-4-pentyl-1,5-dihydro-pyrrol-2-one]
IC50 (read-out: IC50): 0.4 µM

CC(=O)C1=C(O)C(=O)N(c2ccc3[nH]cnc3c2)C1c1ccsc1 (centres unmarked) [Compound 367, 4-Acetyl-1-(1H-benzoimidazol-5-yl)-3-hydroxy-5-thiophen-3-yl-1,5-dihydro-pyrrol-2-one]
IC50 (read-out: IC50): 0.76 µM

CC(=O)C1=C(O)C(=O)N(c2ccc3[nH]cnc3c2)C1CCC(=O)O (centres unmarked) [Compound 450, 3-[3-Acetyl-1-(1H-benzoimidazol-5-yl)-4-hydroxy-5-oxo-2,5-dihydro-1H-pyrrol-2-yl]-propionic acid]
IC50 (read-out: IC50): 9.49 µM

Cc1ccc(C2C(c3ccccc3)=C(O)C(=O)N2CCCn2ccnc2)cc1C (centres unmarked) [Compound 88, 5-(3,4-Dimethyl-phenyl)-3-hydroxy-1-(3-imidazol-1-yl-propyl)-4-phenyl-1,5-dihydro-pyrrol-2-one]
IC50 (read-out: IC50): 1.3 µM

CCC1=C(O)C(=O)N(CCCn2ccnc2)C1Cc1ccccc1 (centres unmarked) [Compound 242, 5-Benzyl-4-ethyl-3-hydroxy-1-(3-imidazol-1-yl-propyl)-1,5-dihydro-pyrrol-2-one]
IC50 (read-out: IC50): 2.2 µM

O=C1C(O)=C(c2ccccc2)C(c2cc(Cl)cc(Cl)c2O)N1CCCn1ccnc1 (centres unmarked) [Compound 76, 5-(3,5-Dichloro-2-hydroxy-phenyl)-3-hydroxy-1-(3-imidazol-1-yl-propyl)-4-phenyl-1,5-dihydro-pyrrol-2-one]
IC50 (read-out: IC50): 0.04 µM

CCCC1=C(O)C(=O)N(c2ccc3[nH]cnc3c2)C1c1ccc(C(=O)O)o1 (centres unmarked) [Compound 292, 5-[1-(1H-Benzoimidazol-5-yl)-4-hydroxy-5-oxo-3-propyl-2,5-dihydro-1H-pyrrol-2-yl]-furan-2-carboxylic acid]
IC50 (read-out: IC50): 9.94 µM

CCCCCC1C(CC)=C(O)C(=O)N1CCCn1ccnc1 (centres unmarked) [Compound 232, 4-Ethyl-3-hydroxy-1-(3-imidazol-1-yl-propyl)-5-pentyl-1,5-dihydro-pyrrol-2-one]
IC50 (read-out: IC50): 0.04 µM

CC1=C(O)C(=O)N(CCCn2ccnc2)C1c1ccncc1 (centres unmarked) [Compound 44, 3-Hydroxy-1-(3-imidazol-1-yl-propyl)-4-methyl-5-pyridin-4-yl-1,5-dihydro-pyrrol-2-one]
IC50 (read-out: IC50): 3.1 µM

CC(C)(C)C(=O)C1=C(O)C(=O)N(c2ccc3[nH]cnc3c2)C1c1c(F)c(F)cc(F)c1F (centres unmarked) [Compound 442, 1-(1H-Benzoimidazol-5-yl)-4-(2,2-dimethyl-propionyl)-3-hydroxy-5-(2,3,5,6-tetrafluoro-phenyl)-1,5-dihydro-pyrrol-2-one]
IC50 (read-out: IC50): 8.59 µM

CCCCC1C(CC)=C(O)C(=O)N1CCCn1ccnc1 (centres unmarked) [Compound 248, 5-Butyl-4-ethyl-3-hydroxy-1-(3-imidazol-1-yl-propyl)-1,5-dihydro-pyrrol-2-one]
IC50 (read-out: IC50): 2.2 µM

CSCC1=C(O)C(=O)N(c2ccc3[nH]cnc3c2)C1c1cc(Cl)ccc1O (centres unmarked) [Compound 336, 1-(1H-Benzoimidazol-5-yl)-5-(5-chloro-2-hydroxy-phenyl)-3-hydroxy-4-methylsulfanylmethyl-1,5-dihydro-pyrrol-2-one]
IC50 [1]: 0.156 µM
IC50 (read-out: IC50): 0.31 µM

CCC1C(C(C)=O)=C(O)C(=O)N1c1ccc2[nH]cnc2c1 (centres unmarked) [Compound 439, 4-Acetyl-1-(1H-benzoimidazol-5-yl)-5-ethyl-3-hydroxy-1,5-dihydro-pyrrol-2-one]
IC50 (read-out: IC50): 2.74 µM

O=C1C(O)=C(c2c[nH]c3ccccc23)C(c2ccc3nsnc3c2)N1c1ccc2[nH]cnc2c1 (centres unmarked) [Compound 457]
IC50 (read-out: IC50): 0.004 µM

CCCCCC1=C(O)C(=O)N(CCCn2ccnc2)C1c1ccc(C)c(C)c1 (centres unmarked) [Compound 195, 5-(3,4-Dimethyl-phenyl)-3-hydroxy-1-(3-imidazol-1-yl-propyl)-4-pentyl-1,5-dihydro-pyrrol-2-one]
IC50 (read-out: IC50): 0.04 µM

CC(=O)C1=C(O)C(=O)N(c2ccc3[nH]cnc3c2)C1c1ccc(N2CCCC2)cc1 (centres unmarked) [Compound 345, 4-Acetyl-1-(1H-benzoimidazol-5-yl)-3-hydroxy-5-(4-pyrrolidin-1-yl-phenyl)-1,5-dihydro-pyrrol-2-one]
IC50 (read-out: IC50): 1.57 µM

CC(=O)C1=C(O)C(=O)N(c2ccc3[nH]cnc3c2)C1c1nccs1 (centres unmarked) [Compound 349, 4-Acetyl-1-(1H-benzoimidazol-5-yl)-3-hydroxy-5-thiazol-2-yl-1,5-dihydro-pyrrol-2-one]
IC50 (read-out: IC50): 1.03 µM

O=C1C(O)=C(c2ccc(O)cc2)C(c2ccco2)N1CCCn1ccnc1 (centres unmarked) [Compound 176, 5-Furan-2-yl-3-hydroxy-4-(4-hydroxy-phenyl)-1-(3-imidazol-1-yl-propyl)-1,5-dihydro-pyrrol-2-one]
IC50 (read-out: IC50): 0.04 µM

CC(C)(C)C(=O)C1=C(O)C(=O)N(c2ccc3[nH]cnc3c2)C1 [Compound 465, 1-(1H-Benzoimidazol-5-yl)-4-(2,2-dimethyl-propionyl)-3-hydroxy-1,5-dihydro-pyrrol-2-one]
IC50 (read-out: IC50): 6.16 µM

Cc1cccc(C2C(C(=O)C3CCCCC3)=C(O)C(=O)N2c2ccc3[nH]cnc3c2)n1 (centres unmarked) [Compound 381, 1-(1H-Benzoimidazol-5-yl)-4-cyclohexanecarbonyl-3-hydroxy-5-(6-methyl-pyridin-2-yl)-1,5-dihydro-pyrrol-2-one]
IC50 (read-out: IC50): 1.75 µM

CCC/C=C/C1C(c2ccccc2)=C(O)C(=O)N1CCCn1ccnc1 (centres unmarked) [Compound 78, 3-Hydroxy-1-(3-imidazol-1-yl-propyl)-5-(pent-1-enyl)-4-phenyl-1,5-dihydro-pyrrol-2-one]
IC50 (read-out: IC50): 0.04 µM

CCCCCC1=C(O)C(=O)N(CCCn2ccnc2)C1c1ccccc1O (centres unmarked) [Compound 194, 3-Hydroxy-5-(2-hydroxy-phenyl)-1-(3-imidazol-1-yl-propyl)-4-pentyl-1,5-dihydro-pyrrol-2-one]
IC50 (read-out: IC50): 0.04 µM

CCC/C=C/C1C(c2ccc(O)cc2)=C(O)C(=O)N1CCCn1ccnc1 (centres unmarked) [Compound 149, 3-Hydroxy-4-(4-hydroxy-phenyl)-1-(3-imidazol-1-yl-propyl)-5-(pent-1-enyl)-1,5-dihydro-pyrrol-2-one]
IC50 (read-out: IC50): 1.3 µM

CCCC(=O)C1=C(O)C(=O)N(c2ccc3[nH]cnc3c2)C1CCC (centres unmarked) [Compound 313, 1-(1H-Benzoimidazol-5-yl)-4-butyryl-3-hydroxy-5-propyl-1,5-dihydro-pyrrol-2-one]
IC50 (read-out: IC50): 5.17 µM

O=C1C(O)=C(c2cccc(O)c2)C(c2c[nH]c3ccccc23)N1CCCn1ccnc1 (centres unmarked) [Compound 18, 3-Hydroxy-4-(3-hydroxy-phenyl)-1-(3-imidazol-1-yl-propyl)-5-(1H-indol-3-yl)-1,5-dihydro-pyrrol-2-one]
IC50 (read-out: IC50): 9.4 µM

Cc1cc(C2C(C(=O)C3CC3)=C(O)C(=O)N2c2ccc3[nH]cnc3c2)cc(C)c1O (centres unmarked) [Compound 342, 1-(1H-Benzoimidazol-5-yl)-4-cyclopropanecarbonyl-3-hydroxy-5-(4-hydroxy-3,5-dimethyl-phenyl)-1,5-dihydro-pyrrol-2-one]
IC50 (read-out: IC50): 0.31 µM

CCC1=C(O)C(=O)N(CCCn2ccnc2)C1c1ccccc1F (centres unmarked) [Compound 250, 4-Ethyl-5-(2-fluoro-phenyl)-3-hydroxy-1-(3-imidazol-1-yl-propyl)-1,5-dihydro-pyrrol-2-one]
IC50 (read-out: IC50): 1.3 µM

O=C1C(O)=C(F)C(c2ccccc2F)N1c1ccc2[nH]cnc2c1 (centres unmarked) [Compound 462, 1-(1H-Benzoimidazol-5-yl)-4-fluoro-5-(2-fluoro-phenyl)-3-hydroxy-1,5-dihydro-pyrrol-2-one]
IC50 (read-out: IC50): 4.99 µM

CCC1=C(O)C(=O)N(CCCn2ccnc2)C1c1ccncc1 (centres unmarked) [Compound 244, 4-Ethyl-3-hydroxy-1-(3-imidazol-1-yl-propyl)-5-pyridin-4-yl-1,5-dihydro-pyrrol-2-one]
IC50 (read-out: IC50): 0.4 µM
